From patent publication US8541460B2, “PDK-1/Akt signaling inhibitors” (The Ohio State University, priority 2003, dated 2013)

Key:
OVCAR-3 = assay: NCI DTP cell line screen (SRB), Ovarian Cancer; assay type: cell-based
Description: (§1) Screening of compounds 70 and 71 against several cancer cell lines The human tumor cell lines of the cancer screening panel are grown in RPMI 1640 medium containing 5% fetal bovine serum and 2 mM L-glutamine. For a typical screening experiment, cells are inoculated into 96 well microtiter plates in 100 μL at plating densities ranging from 5,000 to 40,000 cells/well depending on the doubling time of individual cell lines. After cell inoculation, the microtiter plates are incubated at 37° C., 5% CO2, 95% air and 100% relative humidity for 24 h prior to addition of experimental drugs.
(§2) After 24 h, two plates of each cell line are fixed in situ with TCA, to represent a measurement of the cell population for each cell line at the time of drug addition (Tz). Experimental drugs are solubilized in dimethyl sulfoxide at 400-fold the desired final maximum test concentration and stored frozen prior to use. At the time of drug addition, an aliquot of frozen concentrate is thawed and diluted to twice the desired final maximum test concentration with complete medium containing 50 μg/ml gentamicin. Additional four, 10-fold or ½ log serial dilutions are made to provide a total of five drug concentrations plus control. Aliquots of 100 μl of these different drug dilutions are added to the appropriate microtiter wells already containing 100 μl of medium, resulting in the required final drug concentrations.
(§3) Following drug addition, the plates are incubated for an additional 48 h at 37° C., 5% CO2, 95% air, and 100% relative humidity. For adherent cells, the assay is terminated by the addition of cold TCA. Cells are fixed in situ by the gentle addition of 50 μl of cold 50% (w/v) TCA (final concentration, 10% TCA) and incubated for 60 minutes at 4° C. The supernatant is discarded, and the plates are washed five times with tap water and air dried. Sulforhodamine B (SRB) solution (100 μl) at 0.4% (w/v) in 1% acetic acid is added to each well, and plates are incubated for 10 minutes at room temperature. After staining, unbound dye is removed by washing five times with 1% acetic acid and the plates are air dried. Bound stain is subsequently solubilized with 10 mM trizma base, and the absorbance is read on an automated plate reader at a wavelength of 515 nm. For suspension cells, the methodology is the same except that the assay is terminated by fixing settled cells at the bottom of the wells by gently adding 50 μl of 80% TCA (final concentration, 16% TCA). Using the seven absorbance measurements [time zero, (Tz), control growth, (C), and test growth in the presence of drug at the five concentration levels (Ti)], the percentage growth is calculated at each of the drug concentrations levels. Percentage growth inhibition is calculated as: [(Ti−Tz)/(C−Tz)]×100 for concentrations for which Ti>/=Tz [(Ti−Tz)/Tz]×100 for concentrations for which Ti<Tz
(§4) Three dose response parameters are calculated for each experimental agent. […] The drug concentration resulting in total growth inhibition (TGI) is calculated from Ti=Tz. […] Values are calculated for each of these three parameters if the level of activity is reached; however, if the effect is not reached or is exceeded, the value for that parameter is expressed as greater or less than the maximum or minimum concentration tested.
(§5) The methods described were used to test compounds 70 and 71 on a panel of sixty cell lines under a screening service provided by the Developmental Therapeutics Program at the National Institutes of Health. Shown in FIG. 1C are 1, RPMI-8226 leukemia cells; 2; NCI-H322M non-small cell lung cancer cells; 3, HT29 colon cancer cells; 4, U251 CNS cancer cells; 5, SK-MEL-28 melanoma cancer cells; 6, SK-OV-3 ovarian cancer cells; 7, RXF 393 renal cancer cells; 8, PC-3 prostate cancer cells; 9, MDA-MB-231 breast cancer cells.

OVCAR-5 = assay: NCI DTP cell line screen (SRB), Ovarian Cancer; assay type: cell-based
Description: as §1, §2, §3, §4, §5

OVCAR-4 = assay: NCI DTP cell line screen (SRB), Ovarian Cancer; assay type: cell-based
Description: as §1, §2, §3, §4, §5

OVCAR-8 = assay: NCI DTP cell line screen (SRB), Ovarian Cancer; assay type: cell-based; conditions: OVCAR 8
Description: as §1, §2, §3, §4, §5

IGROV1 = assay: NCI DTP cell line screen (SRB), Ovarian Cancer; assay type: cell-based
Description: as §1, §2, §3, §4, §5

UO-31 = assay: NCI DTP cell line screen (SRB), Renal Cancer; assay type: cell-based, human
Description: as §1, §2, §3, §4, §5

RXF 393 = assay: NCI DTP cell line screen (SRB), Renal Cancer; assay type: cell-based, human
Description: as §1, §2, §3, §4, §5

[1] = test system: sixty human tumor cell lines; assay: NCI DTP screen, means over sixty human tumor cell lines; assay type: cell-based; conditions: two-day treatment
Description: as §1, §2
Following drug addition, the plates are incubated for an additional 48 h at 37° C., 5% CO2, 95% air, and 100% relative humidity. For adherent cells, the assay is terminated by the addition of cold TCA. Cells are fixed in situ by the gentle addition of 50 μl of cold 50% (w/v) TCA (final concentration, 10% TCA) and incubated for 60 minutes at 4° C. […] Bound stain is subsequently solubilized with 10 mM trizma base, and the absorbance is read on an automated plate reader at a wavelength of 515 nm. […] Using the seven absorbance measurements [time zero, (Tz), control growth, (C), and test growth in the presence of drug at the five concentration levels (Ti)], the percentage growth is calculated at each of the drug concentrations levels. Percentage growth inhibition is calculated as: [(Ti−Tz)/(C−Tz)]×100 for concentrations for which Ti>/=Tz [(Ti−Tz)/Tz]×100 for concentrations for which Ti<Tz
as §4, with “tested. […]” for “tested.”

HCT-15 = assay: NCI DTP cell line screen (SRB), Colon Cancer; assay type: cell-based
[2] = read-out: LC50 (the source's name)

N=C(N)Nc1ccc(-n2nc(C(F)(F)F)cc2-c2ccc3c(ccc4ccccc43)c2)cc1 [Compound 71, 4-[5-(2-Phenanthrenyl)-3-(trifluoromethyl)-1H-pyrazol-1-yl]-phenyl-guanidine]
GI50 (OVCAR-3): 1400 nM | TGI (OVCAR-3): 2.70E−06 | Mean Optical Densities (OVCAR-3; Log10 Concentration −4.0): 0.131 | Percent Growth (OVCAR-3; Log10 Concentration −4.0): −72% | Mean Optical Densities (OVCAR-3; Log10 Concentration −5.0): −0.043 | Percent Growth (OVCAR-3; Log10 Concentration −5.0): −100% | Mean Optical Densities (OVCAR-3; Log10 Concentration −6.0): 0.770 | Percent Growth (OVCAR-3; Log10 Concentration −6.0): 76% | Mean Optical Densities (OVCAR-3; Log10 Concentration −7.0): 0.792 | Percent Growth (OVCAR-3; Log10 Concentration −7.0): 81% | Mean Optical Densities (OVCAR-3; Log10 Concentration −8.0): 0.833 | Percent Growth (OVCAR-3; Log10 Concentration −8.0): 91% | CC50 (OVCAR-3; [2]): 5.2 µM | GI50 (OVCAR-5): 1730 nM | TGI (OVCAR-5): 3.11E−06 | Mean Optical Densities (OVCAR-5; Log10 Concentration −4.0): 0.474 | Percent Growth (OVCAR-5; Log10 Concentration −4.0): −8% | Mean Optical Densities (OVCAR-5; Log10 Concentration −5.0): −0.033 | Percent Growth (OVCAR-5; Log10 Concentration −5.0): −100% | Mean Optical Densities (OVCAR-5; Log10 Concentration −6.0): 1.559 | Percent Growth (OVCAR-5; Log10 Concentration −6.0): 97% | Mean Optical Densities (OVCAR-5; Log10 Concentration −7.0): 1.437 | Percent Growth (OVCAR-5; Log10 Concentration −7.0): 86% | Mean Optical Densities (OVCAR-5; Log10 Concentration −8.0): 1.538 | Percent Growth (OVCAR-5; Log10 Concentration −8.0): 95% | GI50 (OVCAR-4): 1310 nM | TGI (OVCAR-4): 2.58E−06 | Mean Optical Densities (OVCAR-4; Log10 Concentration −4.0): 0.179 | Percent Growth (OVCAR-4; Log10 Concentration −4.0): −66% | Mean Optical Densities (OVCAR-4; Log10 Concentration −5.0): −0.001 | Percent Growth (OVCAR-4; Log10 Concentration −5.0): −100% | Mean Optical Densities (OVCAR-4; Log10 Concentration −6.0): 0.945 | Percent Growth (OVCAR-4; Log10 Concentration −6.0): 70% | Mean Optical Densities (OVCAR-4; Log10 Concentration −7.0): 0.999 | Percent Growth (OVCAR-4; Log10 Concentration −7.0): 79% | Mean Optical Densities (OVCAR-4; Log10 Concentration −8.0): 1.011 | Percent Growth (OVCAR-4; Log10 Concentration −8.0): 81% | CC50 (OVCAR-4; [2]): 5.08 µM | GI50 (OVCAR-8): 1690 nM | TGI (OVCAR-8): 3.05E−06 | Mean Optical Densities (OVCAR-8; Log10 Concentration −4.0): 0.126 | Percent Growth (OVCAR-8; Log10 Concentration −4.0): −69% | Mean Optical Densities (OVCAR-8; Log10 Concentration −5.0): −0.001 | Percent Growth (OVCAR-8; Log10 Concentration −5.0): −100% | Mean Optical Densities (OVCAR-8; Log10 Concentration −6.0): 0.934 | Percent Growth (OVCAR-8; Log10 Concentration −6.0): 94% | Mean Optical Densities (OVCAR-8; Log10 Concentration −7.0): 0.946 | Percent Growth (OVCAR-8; Log10 Concentration −7.0): 96% | Mean Optical Densities (OVCAR-8; Log10 Concentration −8.0): 0.923 | Percent Growth (OVCAR-8; Log10 Concentration −8.0): 92% | CC50 (OVCAR-8; [2]): 5.52 µM | GI50 (IGROV1): 1070 nM | TGI (IGROV1): 2.26E−06 | Mean Optical Densities (IGROV1; Log10 Concentration −4.0): 0.216 | Percent Growth (IGROV1; Log10 Concentration −4.0): −53% | Mean Optical Densities (IGROV1; Log10 Concentration −5.0): −0.039 | Percent Growth (IGROV1; Log10 Concentration −5.0): −100% | Mean Optical Densities (IGROV1; Log10 Concentration −6.0): 0.806 | Percent Growth (IGROV1; Log10 Concentration −6.0): 55% | Mean Optical Densities (IGROV1; Log10 Concentration −7.0): 0.983 | Percent Growth (IGROV1; Log10 Concentration −7.0): 83% | Mean Optical Densities (IGROV1; Log10 Concentration −8.0): 0.997 | Percent Growth (IGROV1; Log10 Concentration −8.0): 85% | CC50 (IGROV1; [2]): 4.75 µM | GI50 (UO-31): 1570 nM | Mean Optical Densities (UO-31; Log10 Concentration −4.0): 0.288 | Percent Growth (UO-31; Log10 Concentration −4.0): −35% | Mean Optical Densities (UO-31; Log10 Concentration −5.0): −0.030 | Percent Growth (UO-31; Log10 Concentration −5.0): −100% | Mean Optical Densities (UO-31; Log10 Concentration −6.0): 1.332 | Percent Growth (UO-31; Log10 Concentration −6.0): 87% | Mean Optical Densities (UO-31; Log10 Concentration −7.0): 1.407 | Percent Growth (UO-31; Log10 Concentration −7.0): 94% | Mean Optical Densities (UO-31; Log10 Concentration −8.0): 1.375 | Percent Growth (UO-31; Log10 Concentration −8.0): 91% | TGI (UO-31; in M (unit assumed)): 2.92E−06 | TGI (RXF 393): 2.91E−06 | Mean Optical Densities (RXF 393; Log10 Concentration −4.0): 0.385 | Percent Growth (RXF 393; Log10 Concentration −4.0): −4% | Mean Optical Densities (RXF 393; Log10 Concentration −5.0): 0.156 | Percent Growth (RXF 393; Log10 Concentration −5.0): −61% | Mean Optical Densities (RXF 393; Log10 Concentration −6.0): 0.629 | Percent Growth (RXF 393; Log10 Concentration −6.0): 53% | Mean Optical Densities (RXF 393; Log10 Concentration −7.0): 0.629 | Percent Growth (RXF 393; Log10 Concentration −7.0): 53% | Mean Optical Densities (RXF 393; Log10 Concentration −8.0): 0.582 | Percent Growth (RXF 393; Log10 Concentration −8.0): 42% | mean TGI among the sixty cell lines [1]: 2.9 µM | GI50 ([1]; read-out: mean GI50 among the sixty cell lines): 1200 nM | CC50 ([1]; read-out: mean LC50 among the sixty cell lines): 8.5 µM | GI50 (HCT-15): 1540 nM | TGI (HCT-15): 2.87E−06 | Mean Optical Densities (HCT-15; Log10 Concentration −4.0): 0.082 | Percent Growth (HCT-15; Log10 Concentration −4.0): −71% | Mean Optical Densities (HCT-15; Log10 Concentration −5.0): −0.003 | Percent Growth (HCT-15; Log10 Concentration −5.0): −100% | Mean Optical Densities (HCT-15; Log10 Concentration −6.0): 0.797 | Percent Growth (HCT-15; Log10 Concentration −6.0): 84% | Mean Optical Densities (HCT-15; Log10 Concentration −7.0): 0.779 | Percent Growth (HCT-15; Log10 Concentration −7.0): 81% | Mean Optical Densities (HCT-15; Log10 Concentration −8.0): 0.669 | Percent Growth (HCT-15; Log10 Concentration −8.0): 64% | CC50 (HCT-15; [2]): 5.36 µM
